Where a name gives a salt, the structure may show the parent alone. Bounds are passed on as bounds.

1 compound from US20220144752A1, “WATER-SOLUBLE NAPHTHOQUINONE DERIVATIVE COMPOSITION AND METHOD FOR PRODUCING SAME, WATER-SOLUBLE COMPOSITION FOR CONTROLLING HARMFUL ALGAE, METHOD FOR CONTROLLING LARGE-SCALE HARMFUL ALGAE, AND AUTOMATION SYSTEM FOR AI-MONITORING, REMOVING, AND PREVENTING LARGE-SCALE HARMFUL ALGAE” (priority 2019, published 2022) can be followed below.

In data set [1] the test system is aphanizomenon. In words: Algal effect experiment (algal activity by cell counting). It counts as cell-based, aphanizomenon sp. As to conditions: concentration of 2 μM or more. On the procedure: (§1) The harmful algae algal effect at various inoculation concentrations of the compounds according to an example of the present disclosure was measured. To this end, freshwater harmful algae as treated group include blue-green algae, cyanobacteria microcystis aeruginosa, dolichospermum circinale, aphanizomenon sp., and pseudoanabaena sp., diatoms, stephanodiscus hantzschii, and synedra sp., and green algae, scenedesmus sp., and seawater harmful algae includes trichodesmium sp., alexandrium tamarens, cochlodinium polykrikoides, prorocentrum minimum, and heterosigma akashiwo which are blue-green algae, and pseudo-nitzschia pungens fungens which is diatoms. […]
(§2) Reviewing the details of the experiment, in the case of freshwater species, 5 mL of each culture line was prepared so that the cell density was 5.0×10^3-9.0×10^4 cells/mL, and in the case of seawater species, was prepared so that the cell density was 1.0×10^2-1.0×10^4 cells/mL. […] Counting of the number of cells was performed through an SR-chamber or a hemocytometer under an upright or inverted microscope, and by counting the number of cells after 24 hours, 48 hours, and 72 hours, the reduction ratio of cells compared to before treatment, that is, algal activity (%) was calculated using the following [Equation 1]. […]
(§3) Based on the above [Formula 1], the algal activity of the compound was expressed as 60% or less, 60 to 80%, 80% or more. […]

Data set [2] relates to akashiwo sanguinea. The description is as above. It counts as cell-based. As to conditions: concentration of 6 μM or more.
Data set [3] concerns luminescent bacteria (vibrio fischeri). The data set is described as follows: Ecotoxicity test, relative luminescence of luminescent bacteria. The data set is classed as cell-based. The conditions noted are these: for relative luminescence of the luminescent bacteria: supernatant of microcystis aeruginosa culture treated at 1 μM. As for the experimental part:
In order to investigate the effect of the compound according to an example of the present disclosure, that is, a composition according to [Chemical Formula 1] on the ecosystem, biotoxicity evaluation indicator organisms such as luminescent bacteria (vibrio fischeri) and daphnia (Daphnia magna) was used to evaluate the ecotoxicity.
First, in the case of the luminescent bacteria, an experiment was conducted according to the water pollution process test method, and as a sample for ecotoxicity evaluation, the compound specified in Example 1 was added to the blue-green algae, microcystis aeruginosa (10,488 cells/mL) at a concentration of 1 μM, and then, the supernatant was taken after 24 hours, 48 hours, and 72 hours and the luminescent bacteria were injected. Thereafter, the relative luminescence of the treated group compared to the control group was measured to confirm the luminescence reduction effect, and thus, the toxicity of each sample was evaluated.

Data set [4] has as its system dolichospermum. In words: Algal effect experiment (algal activity by cell counting). It counts as cell-based, dolichospermum circinale. The conditions noted are these: concentration of 1 μM or more. As for the experimental part:
as §1, §2, §3

The test system of data set [5] is green algae. The description is as above. The data set is classed as cell-based. The conditions noted are these: 1, 2 and 6 μM, up to 72 hours. On the procedure: (§4) The harmful algae algal effect at various inoculation concentrations of the compounds according to an example of the present disclosure was measured. To this end, freshwater harmful algae as treated group include blue-green algae, cyanobacteria microcystis aeruginosa, dolichospermum circinale, aphanizomenon sp., and pseudoanabaena sp., diatoms, stephanodiscus hantzschii, and synedra sp., and green algae, scenedesmus sp., and seawater harmful algae includes trichodesmium sp., alexandrium tamarens, cochlodinium polykrikoides, prorocentrum minimum, and heterosigma akashiwo which are blue-green algae, and pseudo-nitzschia pungens fungens which is diatoms. The culture conditions are shown in [Table 1] below.
(§5) Reviewing the details of the experiment, in the case of freshwater species, 5 mL of each culture line was prepared so that the cell density was 5.0×10^3-9.0×10^4 cells/mL, and in the case of seawater species, was prepared so that the cell density was 1.0×10^2-1.0×10^4 cells/mL. After preparing each culture, the compounds specified as [Chemical Formula 1] prepared according to Examples were inoculated at various concentrations, and are treated so that the final concentrations were 1, 2, and 6 μM, respectively. Then, the compositions were cultured under the culture conditions of [Table 1], and cultured under continuous light conditions and observed for 72 hours. Counting of the number of cells was performed through an SR-chamber or a hemocytometer under an upright or inverted microscope, and by counting the number of cells after 24 hours, 48 hours, and 72 hours, the reduction ratio of cells compared to before treatment, that is, algal activity (%) was calculated using the following [Equation 1].
(§6) Algal activity (%)=(1−Tt/Ct)×100 [Equation 1]
(§7) In this case, in [Equation 1], T represents the density of cells after treating the compound, C represents the density of cells not treating the compound, and t represents the culture time.
(§8) Based on the above [Formula 1], the algal activity of the compound was expressed as 60% or less, 60 to 80%, 80% or more. When the algal activity reached 80% within 48 hours at any compound concentration, it was determined that there was an effect at a concentration higher than that and the high concentration experiment was stopped.

In data set [6] the test system is diatoms. Described as above. The data set is classed as cell-based. The conditions noted are these: 1, 2 and 6 μM, up to 72 hours. As for the experimental part:
as §4, §5, §6, §7, §8

Data set [7] deals with heterosigma akashiwo. The data set is described as above. The data set is classed as cell-based. As to conditions: concentration of 2 μM or more. As for the experimental part:
as §4, §5, §6, §7, §8

Data set [8] concerns cochlodinium polykrikoides. The description is as above. The data set is classed as cell-based. As to conditions: concentration of 1 μM or more. On the procedure: as §4, §5, §6, §7, §8
The subject of data set [9] is microcystis. The data set is described as above. It counts as cell-based, microcystis aeruginosa. As to conditions: concentration of 1 μM or more. As for the experimental part: as §1, §2, §3
Data set [10] deals with Synedra. The data set is described as above. The data set is classed as cell-based, synedra sp. As to conditions: 1 μM, second day; cell growth observed again afterwards. On the procedure:
as §1, §2, §3

The nature of data set [11]: Solubility in organic solvents. It counts as physicochemical. From the text: Therefore, diethyl ether (Et2O) is recommended for washing.
Data set [12] is described as follows: Biodegradability in on-site stream water (UHPLC-DAD). It counts as physicochemical. As to conditions: Jungnangcheon stream water, 6.5 μM input, 20° C. As for the experimental part:
An experiment was performed to evaluate the biodegradability in the water system of the compound of [Chemical Formula 1] according to the example of the present disclosure. First, on-site water from the Jungnangcheon stream in Seoul was collected and sprayed so that the concentration of the substance was 6.5 μM, and then acclimatized to a constant temperature condition of 20° C. The experimental volume was 350 mL, and samples were taken at intervals of 1-3 days, and 5 mL was taken per one time. This sample was filtered with a GF/F filter and stored frozen, and then melted at room temperature for analysis, filtered again with a 0.45 μm nylon filter, and then proceeded under the following analysis conditions. • Equipment: Agilent 1290 Infinity (UHPLC-DAD) • Column: Eclipse Puls-[…] (4.6 mm*100 mm*3.5 μm) • Column temperature: 40° C. • Mobile phase: Isocratic=>A: 0.1% phosphoric acid in D.W, B: ACN=70:30 • Analysis time: 7 min • Flow rate: 1.0 mL/min • Detector: DAD Detector (measurement waveform: 260 nm) • Injection volume: 1 μL

The test system of data set [13] is alexandrium tamarence. In words: Algal effect experiment (algal activity by cell counting). The data set is classed as cell-based, alexandrium tamarens. The conditions noted are these: concentration of 1 μM or more. On the procedure:
as §1, §2, §3

In data set [14] the test system is Scenedesmus. The data set is described as above. The data set is classed as cell-based, scenedesmus sp. As to conditions: 1, 2 and 6 μM, up to 72 hours. As for the experimental part:
as §1, §2, §3

In the case of `CCN(CC)CCNC1=CC(=O)c2ccccc2C1=O` [Chemical Formula 1, 2-((2-(diethylamino)ethyl)amino)naphthalene-1,4-dione HCl], the algae effect in data set [1] is not below 80%. Also, the algal effect entry in [2] is reported as “more than 80%”; in data set [5] it was “insignificant”; in data set [6], “insignificant”; in data set [7], “more than 90%”; in [8], “more than 90%”; in data set [10] it was 70%. Moreover, the algal effect entry is recorded as “more than 90%” in data set [13] and “hardly observed” in data set [14]. For the same compound, in data set [3] (sample added at 1 μM), the “relative luminance versus control group” value is “did not differ from that of the control group”. Moreover, the “relative luminescence of the luminescent bacteria” value in [3] (after 24 hours), in data set [3] (after 48 hours) and in [3] (after 72 hours) was 100% in each case. Also, the “algal effect (killed)” value in data set [4] and in [9] was not below 90% in each case. The solubility result was “slightly dissolved” in [11] (1,4-dioxane), “well dissolved” in [11] (dimethyl sulfoxide (DMSO)) and “slightly dissolved” in [11] (ethanol (EtOH)). Also, in [12] (7th day), the “concentration of the substance relative to the initial input concentration” value amounted to 70%. The “concentration of the substance” value in data set [12] (until the first 2 days) was “maintained at the input concentration level”.
